Experimental data from article PMC6715182, “Helicobacter pylori senses bleach (HOCl) as a chemoattractant using a cytosolic chemoreceptor” (PLoS Biology, 2019).

Biological target: T1, DgcZ (Escherichia coli, UniProt P31129)
T1 construct: CZB domain (DgcZ-CZB, strain K12)
Experiment: cysteine sulfenic acid formation on purified domain, dimedone trapping and immunoblot
Assay type: binding

T1 sequence (P31129 2-127): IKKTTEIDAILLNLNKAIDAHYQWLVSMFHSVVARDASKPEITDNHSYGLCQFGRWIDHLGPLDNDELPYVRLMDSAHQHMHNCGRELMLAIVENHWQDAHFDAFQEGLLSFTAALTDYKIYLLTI

SMILES: OCl [HOCl]
- cysteine sulfenic acid formation on purified domain, dimedone trapping and immun: We found them to be similarly reactive toward HOCl as TlpD
